{"source": "paper PMC9646673", "about": "“A Novel, Orally Bioavailable, Small-Molecule Inhibitor of PCSK9 With Significant Cholesterol-Lowering Properties In Vivo” (Journal of Lipid Research, 2022)", "key": {"[1]": {"molecular_target": "T1, PCSK9-LDLR interaction (Homo sapiens, UniProt Q8NBP7)", "T1 construct": "purchased CycLex (Nagano, Japan) CY8150", "T1 sequence (Q8NBP7 153-692)": "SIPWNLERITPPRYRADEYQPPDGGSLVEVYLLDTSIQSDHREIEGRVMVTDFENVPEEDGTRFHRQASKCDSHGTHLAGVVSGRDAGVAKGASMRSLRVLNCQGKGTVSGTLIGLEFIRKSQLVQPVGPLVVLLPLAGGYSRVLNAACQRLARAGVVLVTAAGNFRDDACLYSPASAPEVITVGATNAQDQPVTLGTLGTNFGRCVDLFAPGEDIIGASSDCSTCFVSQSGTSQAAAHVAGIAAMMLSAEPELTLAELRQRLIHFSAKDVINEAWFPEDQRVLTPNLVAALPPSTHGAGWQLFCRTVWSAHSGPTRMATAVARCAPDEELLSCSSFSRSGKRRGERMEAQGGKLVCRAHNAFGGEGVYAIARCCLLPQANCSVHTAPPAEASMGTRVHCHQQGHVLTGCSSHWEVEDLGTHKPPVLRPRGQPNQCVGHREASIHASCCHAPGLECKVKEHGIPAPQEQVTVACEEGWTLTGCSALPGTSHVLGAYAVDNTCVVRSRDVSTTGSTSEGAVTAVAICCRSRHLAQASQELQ", "T1 sequence (Q8NBP7 31-152 partner limits assumed)": "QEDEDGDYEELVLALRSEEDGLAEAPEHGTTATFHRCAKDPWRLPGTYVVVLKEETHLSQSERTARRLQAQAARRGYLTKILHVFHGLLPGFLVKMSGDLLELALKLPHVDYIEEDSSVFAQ", "experiment": "CircuLex PCSK9-LDLR in vitro binding assay", "conditions": "in vitro biochemical binding assay; read-out: IC50 against the PCSK9-LDLR interaction", "excerpt": "Ethics was granted by the Comité de Protection des Personnes Sud Méditerranée (ID: 2020-A00196-33). Studies using human samples abided by the Declaration of Helsinki principles."}, "[2]": {"test_system": "plasma PCSK9 protein levels", "experiment": "First efficacy study: plasma total PCSK9 (ELISA)", "type": "in vivo, mouse", "conditions": "50 mg/kg BID PO, day 28", "excerpt": "(§1) Animal experiments were approved by the governmental central committee on animal experiments (AVD5010020172064) and TNO’s animal welfare body (TNO-471 and TNO-482). Female APOE∗3-Leiden.CETP transgenic mice (11–16 weeks of age) were bred at the animal facility of TNO-InnoSer (Leiden, The Netherlands). Female animals were used in this study as they are more responsive to dietary cholesterol and fat than males and therefore typically develop atherosclerosis more rapidly than male APOE∗3-Leiden and APOE∗3-Leiden.CETP mice on cholesterol-containing diets ([33], [34]). […] Body weight, food intake, and clinical signs of behavior were monitored throughout the studies. […]\n(§2) Treatment times were around 8:00 am and 4:00 pm each day. Throughout the in-life phase of the study, body weight and food intake (per cage) were measured at regular predetermined intervals while blood samples were collected every 7 days. […] Throughout the study, plasma cholesterol, triglycerides, HDL-C, lipoprotein profiles, PCSK9 expression levels, aspartate transaminase levels (AST), and alanine transaminase levels (ALT) were measured as described below.\nIn both studies, blood samples were collected at weekly intervals via tail vein sampling after fasting the mice for 4 h. […] Total plasma cholesterol levels were determined using a Cholesterol CHOD-PAP kit according to the manufacturer’s instructions. […]"}, "[3]": {"test_system": "hepatic LDLR protein", "experiment": "Second efficacy study: hepatic LDLR protein (Western blotting)", "type": "in vivo, mouse", "conditions": "day 35; NYX-PCSK9i 50 mg/kg BID PO, atorvastatin […]"}, "[4]": {"test_system": "Hmgcr, Srebf2, Pcsk9, Ldlr, Mttp transcripts in liver tissue", "experiment": "Hepatic gene transcription (qPCR), day 35", "type": "in vivo, mouse", "conditions": "50 mg/kg BID PO, 5 weeks", "description": "The transcript levels of select genes in the liver tissue of mice treated with either vehicle or NYX-PCSK9i were analyzed. RNA was isolated from liver tissue using an RNA STAT-60 kit as per the manufacturer’s protocol. RNA concentrations were determined using a NanoDrop 2000 spectrophotometer (Thermo Fisher Scientific, Rockford, IL), and up to 2 μg of RNA was used as a template for cDNA synthesis using a High-capacity RNA-to-cDNA kit according to the manufacturer’s instructions. Quantitative PCR was performed with fluorescein amidite-labeled TaqMan® Assay primers and TaqMan® Fast Universal PCR Master Mix using a QuantStudio 6 Flex Real-Time PCR system (Applied Biosystems). DNA was amplified by applying a standard cycle protocol with an annealing temperature of 60°C and 40 cycles of amplification. Differential transcriptional activity was calculated using the 2^–ΔΔCt method."}, "[5]": {"test_system": "APOE∗3-Leiden.CETP mice", "experiment": "Fecal bile acid and neutral sterol content, cholesterol balance", "experimental": "In a subsequent efficacy study, mice were treated identically to the first study with the following modifications. Mice in group 1 received vehicle solution (5% DMSO, 5% Solutol HS15, and 90% saline) twice daily by oral gavage. […] The study ran for a total of 35 days with blood and tissue collection and analysis performed as described below.\nAnalyses of fecal neutral sterol and bile acid contents were performed by gas chromatographic analysis as previously detailed ([37], [38]). Per treatment group, two cages of four mice per cage were used, with feces collected twice per cage during the last week of the study. The net cholesterol uptake, or cholesterol balance, was defined as the dietary cholesterol intake (food intake measured weekly) minus the summed fecal output of neutral sterols and bile acids."}, "[6]": {"test_system": "APOE∗3-Leiden.CETP mice", "experiment": "First efficacy study: body weight, food intake, plasma AST and ALT", "type": "in vivo, mouse", "design": "Body weight (mean ± SD) / Food intake (mean ± SD): unit not given here", "conditions": "for Plasma ALT / Plasma AST: group-pooled", "excerpt": "Animal experiments were approved by the governmental central committee on animal experiments (AVD5010020172064) and TNO’s animal welfare body (TNO-471 and TNO-482). Female APOE∗3-Leiden.CETP transgenic mice (11–16 weeks of age) were bred at the animal facility of TNO-InnoSer (Leiden, The Netherlands). Female animals were used in this study as they are more responsive to dietary cholesterol and fat than males and therefore typically develop atherosclerosis more rapidly than male APOE∗3-Leiden and APOE∗3-Leiden.CETP mice on cholesterol-containing diets ([33], [34]). Although measurements of atherosclerosis were not included as part of the present study, females were used with the prospect in mind that atherosclerosis studies will follow. The mice were housed under standard conditions that included 12 h light-dark cycles and access to a WTD and sterilized tap water ad libitum. Body weight, food intake, and clinical signs of behavior were monitored throughout the studies. […] Time t = 0 (weeks) was designated as the time at which mice were matched into groups after the 3-week run-in period in each efficacy study.\nTreatment times were around 8:00 am and 4:00 pm each day. Throughout the in-life phase of the study, body weight and food intake (per cage) were measured at regular predetermined intervals while blood samples were collected every 7 days. The last gavage was administered on day 27. On day 28, the mice were sacrificed by CO2 asphyxiation, EDTA-plasma was obtained via heart puncture, and the liver was weighed and collected. Throughout the study, plasma cholesterol, triglycerides, HDL-C, lipoprotein profiles, PCSK9 expression levels, aspartate transaminase levels (AST), and alanine transaminase levels (ALT) were measured as described below.\n(§3) In both studies, blood samples were collected at weekly intervals via tail vein sampling after fasting the mice for 4 h. Blood samples were centrifugated (4500 g at 4°C), and the plasma was collected for the following analyses. Total plasma cholesterol levels were determined using a Cholesterol CHOD-PAP kit according to the manufacturer’s instructions. Plasma HDL-C levels were determined by first precipitating apoB-containing lipids using PEG 6000/glycine and then utilizing the Cholesterol CHOD-PAP kit ([35]). Non-HDL-C levels were determined by subtracting HDL-C levels from total cholesterol levels ([32]). Group-pooled lipoprotein profiles were determined by FPLC analysis using an AKTApurifier 10 FPLC system (GE Healthcare, Chicago, IL). Plasma PCSK9 levels were determined using a Mouse PCSK9 Quantikine ELISA kit as per the manufacturer’s protocol. ALT and AST levels of group-pooled samples were measured using the Roche Reflotron Plus System (Mannheim, Germany)."}, "[7]": {"test_system": "plasma PCSK9 protein levels", "experiment": "Second efficacy study: plasma total PCSK9 (ELISA)", "type": "in vivo, mouse", "conditions": "50 mg/kg BID PO, from day 7, sustained for the remaining 4 weeks", "excerpt": "as §1\nas §3, with “Blood samples were centrifugated (4500 g at 4°C), and the plasma was collected for the following analyses.” left out, “Plasma PCSK9 levels were determined using a Mouse PCSK9 Quantikine ELISA kit as per the manufacturer’s protocol. ALT and AST levels of group-pooled samples were measured using the Roche Reflotron Plus System (Mannheim, Germany).” left out"}, "[8]": {"test_system": "hepatic LDLR protein", "experiment": "First efficacy study: hepatic LDLR protein (Western blotting)", "type": "in vivo, mouse", "conditions": "day 28", "excerpt": "as §1, §2\nThe transcript levels of select genes in the liver tissue of mice treated with either vehicle or NYX-PCSK9i were analyzed. […] Differential transcriptional activity was calculated using the 2^–ΔΔCt method."}, "[9]": {"conditions": "30 mg/kg BID PO, day 0 (baseline)"}, "[10]": {"conditions": "50 mg/kg BID PO, day 0 (baseline)"}}, "data": [{"smiles": "Cc1cn(-c2cc(CN3CCC[C@H](N)C3)cc(NC(=O)c3cc(-c4ccccc4)ccn3)c2)cn1", "note": "[NYX-PCSK9i]", "values": [{"measurement": "IC50", "setting": "[1]", "result": 0.323, "unit": "µM"}, {"measurement": "maximal increase in plasma PCSK9 protein levels", "setting": "[2]", "result": 2, "unit": "fold"}, {"measurement": "increase in hepatic LDLR protein expression", "setting": "[3]", "result": 45, "unit": "%"}, {"measurement": "increase in hepatic transcription of Pcsk9", "setting": "[4]", "result": 61, "unit": "%"}, {"measurement": "upregulation of hepatic Srebf2 transcript", "setting": "[4]", "result": 33, "unit": "%"}, {"measurement": "share of fecal neutral sterols that was cholesterol", "setting": "[5]; data not shown", "result": "more than 95%"}, {"measurement": "cholesterol balance (dietary cholesterol intake minus fecal bile acids and neutral sterols)", "setting": "[5]; final week of 35-day study", "result": "negative"}, {"measurement": "Body weight (mean ± SD)", "setting": "[6]; [9]", "result": "21.9 ± 1.3"}, {"measurement": "Food intake (mean ± SD)", "setting": "[6]; [9]", "result": "3.3 ± 0.3"}, {"measurement": "Body weight (mean ± SD)", "setting": "[6]; 30 mg/kg BID PO, day 7", "result": "22.0 ± 1.6"}, {"measurement": "Food intake (mean ± SD)", "setting": "[6]; 30 mg/kg BID PO, day 7", "result": "2.7 ± 0.3"}, {"measurement": "Food intake (mean ± SD)", "setting": "[6]; 30 mg/kg BID PO, day 14", "result": "2.6 ± 0.6"}, {"measurement": "Food intake (mean ± SD)", "setting": "[6]; 30 mg/kg BID PO, day 21", "result": "2.4 ± 0.2"}, {"measurement": "Body weight (mean ± SD)", "setting": "[6]; 30 mg/kg BID PO, day 28", "result": "22.0 ± 1.1"}, {"measurement": "Food intake (mean ± SD)", "setting": "[6]; 30 mg/kg BID PO, day 28", "result": "3.0 ± 0.1"}, {"measurement": "Food intake (mean ± SD)", "setting": "[6]; [10]", "result": "3.3 ± 0.3"}, {"measurement": "Body weight (mean ± SD)", "setting": "[6]; 50 mg/kg BID PO, day 7", "result": "21.8 ± 1.3"}, {"measurement": "Food intake (mean ± SD)", "setting": "[6]; 50 mg/kg BID PO, day 7", "result": "2.6 ± 0.0"}, {"measurement": "Body weight (mean ± SD)", "setting": "[6]; 50 mg/kg BID PO, day 14", "result": "21.8 ± 1.1"}, {"measurement": "Food intake (mean ± SD)", "setting": "[6]; 50 mg/kg BID PO, day 14", "result": "2.9 ± 0.0"}, {"measurement": "Body weight (mean ± SD)", "setting": "[6]; 50 mg/kg BID PO, day 21", "result": "21.5 ± 1.4"}, {"measurement": "Food intake (mean ± SD)", "setting": "[6]; 50 mg/kg BID PO, day 21", "result": "2.7 ± 0.0"}, {"measurement": "Body weight (mean ± SD)", "setting": "[6]; 50 mg/kg BID PO, day 28", "result": "21.6 ± 1.1"}, {"measurement": "Food intake (mean ± SD)", "setting": "[6]; 50 mg/kg BID PO, day 28", "result": "2.7 ± 0.1"}, {"measurement": "plasma levels of the liver enzymes AST and ALT compared to vehicle", "setting": "[6]; 30 and 50 mg/kg BID PO, 28 days", "result": "remained stable"}, {"measurement": "Plasma ALT", "setting": "[6]; [9]", "result": 76.8, "unit": "U/L"}, {"measurement": "Plasma AST", "setting": "[6]; [9]", "result": 185.2, "unit": "U/L"}, {"measurement": "Plasma ALT", "setting": "[6]; 30 mg/kg BID PO, day 7", "result": 69.6, "unit": "U/L"}, {"measurement": "Plasma AST", "setting": "[6]; 30 mg/kg BID PO, day 7", "result": 175.2, "unit": "U/L"}, {"measurement": "Plasma ALT", "setting": "[6]; 30 mg/kg BID PO, day 14", "result": 70.0, "unit": "U/L"}, {"measurement": "Plasma AST", "setting": "[6]; 30 mg/kg BID PO, day 14", "result": 158.8, "unit": "U/L"}, {"measurement": "Plasma ALT", "setting": "[6]; 30 mg/kg BID PO, day 21", "result": 55.6, "unit": "U/L"}, {"measurement": "Plasma AST", "setting": "[6]; 30 mg/kg BID PO, day 21", "result": 156.8, "unit": "U/L"}, {"measurement": "Plasma ALT", "setting": "[6]; 30 mg/kg BID PO, day 28", "result": 35.6, "unit": "U/L"}, {"measurement": "Plasma AST", "setting": "[6]; 30 mg/kg BID PO, day 28", "result": 84, "unit": "U/L"}, {"measurement": "Plasma ALT", "setting": "[6]; [10]", "result": 70.0, "unit": "U/L"}, {"measurement": "Plasma AST", "setting": "[6]; [10]", "result": 170.8, "unit": "U/L"}, {"measurement": "Plasma ALT", "setting": "[6]; 50 mg/kg BID PO, day 7", "result": 74.8, "unit": "U/L"}, {"measurement": "Plasma AST", "setting": "[6]; 50 mg/kg BID PO, day 7", "result": 181.2, "unit": "U/L"}, {"measurement": "Plasma ALT", "setting": "[6]; 50 mg/kg BID PO, day 14", "result": 56, "unit": "U/L"}, {"measurement": "Plasma AST", "setting": "[6]; 50 mg/kg BID PO, day 14", "result": 147.6, "unit": "U/L"}, {"measurement": "Plasma ALT", "setting": "[6]; 50 mg/kg BID PO, day 21", "result": 47.6, "unit": "U/L"}, {"measurement": "Plasma AST", "setting": "[6]; 50 mg/kg BID PO, day 21", "result": 120.4, "unit": "U/L"}, {"measurement": "Plasma ALT", "setting": "[6]; 50 mg/kg BID PO, day 28", "result": 38, "unit": "U/L"}, {"measurement": "Plasma AST", "setting": "[6]; 50 mg/kg BID PO, day 28", "result": 107, "unit": "U/L"}, {"measurement": "elevation of total plasma PCSK9 levels", "setting": "[7]", "result": "approximately 2 fold"}, {"measurement": "increase in hepatic LDLR protein levels", "setting": "[8]; 30 mg/kg BID PO", "result": 46, "unit": "%"}, {"measurement": "increase in hepatic LDLR protein levels", "setting": "[8]; 50 mg/kg BID PO", "result": 51, "unit": "%"}]}]}
